Reference: PMC4535766, “Antiprotozoal Activity Profiling of Approved Drugs: A Starting Point toward Drug Repositioning” (PLoS ONE, 2015)
Where a name gives a salt, the structure may show the parent alone. Read-outs that look alike come from different tables or passages of the source.

Legend:
[1] = tested on: T. b. rhodesiense strain STIB 900, trypomastigotes; experiment: In vitro activity against T. b. rhodesiense, serial drug dilution assay; conditions: for IC50: Trypanosoma brucei
Experimental: (§1) Drug stock solutions (10mg/ml) were in DMSO (100%). […] Selectivity index (SI) was calculated as IC50 L6 cells/IC50 parasite.

in vitro = conditions: rat
Experimental: as §1

[2] = tested on: T. cruzi, strain Tulahuen C4, intracellular amastigotes; experiment: microbe, parasite or virus in culture; conditions: for IC50: Trypanosoma cruzi, TULAHUEN; for selectivity ratio: Selectivity index: IC50 Cytotoxicity L6/ IC50 T. cruzi
Experimental: as §1

[3] = tested on: axenic amastigotes of L. donovani, strain MHOM-ET-67/L82; experiment: In vitro activity against L. donovani axenic amastigotes, serial drug dilution assay; type: cell-based, Leishmania donovani; conditions: Leishmania donovani
Experimental: as §1

[4] = tested on: intracellular amastigotes of L. donovani strain MHOM-ET-67/L82; experiment: Activity against Leishmania donovani intracellular amastigotes in mouse peritoneal macrophages; conditions: Leishmania donovani, Peritoneal macrophage, in Mus musculus
Experimental: After 24 h 1.2 x 10^5 amastigote L. donovani in 100 μl were added. The amastigotes were taken from an axenic culture grown at pH 5.4. Four hours later, the medium containing free amastigote forms was removed and replaced by fresh medium. The next day the medium was replaced by medium with or without a serial drug dilution of seven 3-fold dilution steps covering a range from 30 to 0.04 μg/ml. Parasite growth in the presence of the drug was compared to control wells. After 96 h of incubation, the medium was removed and the slides fixed with methanol for 10 min followed by staining with a 10% Giemsa solution. Infected and non-infected macrophages were counted for the control cultures and those exposed to the serial drug dilutions. The infection rates were determined. The results were expressed as a percentage reduction in parasite burden compared to control wells, and the IC50 was calculated by linear regression analysis. The collection of mouse peritoneal macrophages was done at the Swiss Tropical and Public Health Institute (Basel) according to the rules and regulations for the protection of animal rights ("Tierschutzverordnung") of the Swiss "Bundesamt für Veterinärwesen".

P. falciparum strain K1 = experiment: In vitro activity against P. falciparum, serial drug dilution assay; conditions: for IC50: Plasmodium falciparum; for Activity against P. falciparum (in words): in vitro
Experimental: as §1

[5] = Cytotoxicity on macrophages infected with L. donovani; type: cell-based, mouse; conditions: mouse
[6] = axenic amastigotes, strain MHOM-ET-67/L82, means of two independent assays, read-out: IC50 L. don. axen.
[7] = 96 h, read-out: IC50 L. don. intracell
[8] = macrophages infected with L. donovani, read-out: IC50 Cytotox. mac.inf.
[9] = L. donovani axenic amastigotes, read-out: L. don. axen. IC50
[10] = read-out: L. don. intracell IC50
[11] = infected macrophages, read-out: Cytotox. mac.inf. IC50
[12] = L6 cells, IC50 Cytotox. L6, L6 cells, means of two independent assays
[13] = mouse peritoneal macrophages infected with L. donovani, macrophages infected with L. donovani, read-out: IC50 Cytotox. mac.inf.

SMILES	IC50 ([1]; read-out: IC50 T. b. rhod.)	IC50 (in vitro; IC50 Cytotox. L6)	IC50 ([2]; read-out: IC50 T. cruzi)	IC50 [3, 6]	IC50 [4, 7]	IC50 (P. falciparum strain K1; K1, read-out: IC50 P. falc. K1)	IC50 at 96 h [5, 8]	further results
NC12CC3CC(CC(C3)C1)C2 [Amantadine]	52.8 µM	215 µM	371 µM	> 595 µM	> 198 µM	5.67 µM	> 198 µM	–
c1ccc(-c2ccc(C(c3ccccc3)n3ccnc3)cc2)cc1 (stereo not drawn) [Bifonazole]	26.8 µM	39.3 µM	0.003 µM	5.48 µM	> 32.2 µM	3.18 µM	> 32.2 µM	–
CCN(CCCCOC(=O)c1ccc(OC)c(OC)c1)C(C)Cc1ccc(OC)cc1 (stereo not drawn) [Mebeverine]	54.2 µM	70.8 µM	3.89 µM	> 210 µM	54.9 µM	1.74 µM	> 69.8 µM	selectivity ratio ([2]; rat): 18
CN(C)CCC=C1c2ccccc2CCc2ccccc21 [Amitriptyline]	3.03 µM	–	35.1 µM	131 µM	> 10.8 µM	1.16 µM	36.1 µM	selectivity ratio ([1]; rat, Selectivity index: IC50 Cytotoxicity L6/ IC50 T. b. rhodesiense): 14; IC50 (in vitro): 42.2 µM; Activity against P. falciparum (in words) (P. falciparum strain K1): micromolar range
COc1ccc(Cl)cc1C(=O)NCCc1ccc(S(=O)(=O)NC(=O)NC2CCCCC2)cc1 [Glybenclamide]	–	–	–	–	–	–	–	IC50 ([1]; read-out: T. b. rhod. IC50): 87.7 µM; IC50 (in vitro): 116 µM; IC50 ([2]; read-out: T. cruzi IC50): 93.9 µM; IC50 [3, 9]: 9.8 µM; IC50 [4, 10]: > 60.7 µM; IC50 (P. falciparum strain K1; K1, read-out: P. falc. IC50): 38.3 µM; IC50 at 96 h [5, 11]: > 60.7 µM
CN/C(=N/CCSCc1nc[nH]c1C)NC#N [Cimetidine]	> 396 µM	302 µM	351 µM	> 396 µM	> 119 µM	29.2 µM	> 119 µM	–
CN1CC(=O)N2[C@H](c3ccc4c(c3)OCO4)c3[nH]c4ccccc4c3C[C@@H]2C1=O [Tadalafil]	97.6 µM	221 µM	8.6 µM	40.1 µM	> 77 µM	> 12.8 µM	> 77 µM	Selectivity index: IC50 Cytotoxicity L6/ IC50 T. cruzi ([2]; rat): 26; selectivity ratio ([2]; rat): > 26
CCCSc1ccc2nc(NC(=O)OC)[nH]c2c1 [Albendazole]	14.7 µM	–	12.3 µM	> 113 µM	> 3.77 µM	–	–	IC50 (in vitro): 0.41 µM
C#C[C@]1(O)CC[C@H]2[C@@H]3CCC4=Cc5oncc5C[C@]4(C)[C@H]3CC[C@@]21C [Danazol]	–	–	–	–	–	–	–	IC50 ([1]; read-out: T. b. rhod. IC50): 45.9 µM; IC50 (in vitro; Cytotox. L6 IC50): 32 µM; IC50 ([2]; read-out: T. cruzi IC50): 6.25 µM; IC50 [3, 9]: 10.2 µM; IC50 [4, 10]: > 29.6 µM; IC50 (P. falciparum strain K1; K1, read-out: P. falc. IC50): 14.1 µM; IC50 at 96 h [5, 11]: > 29.6 µM
Cn1c([N+](=O)[O-])cnc1N1CCN(S(C)(=O)=O)C1=O [Satranidazole]	18.7 µM	–	19.1 µM	10.4 µM	> 104 µM	–	–	IC50 (in vitro; [12]): > 311 µM; IC50 at 96 h [5, 13]: > 104 µM
Cc1nc2ccccn2c(=O)c1CCN1CCC(C(=O)c2ccc(F)cc2)CC1 [Pirenperone]	30 µM	–	128 µM	162 µM	> 76.2 µM	4.35 µM	–	IC50 (in vitro; [12]): 232 µM; IC50 at 96 h [5, 13]: > 76.2 µM
Nc1ccc(S(=O)(=O)c2ccc(N)cc2)cc1 [Dapsone]	353 µM	204 µM	220 µM	> 403 µM	> 121 µM	168 µM	> 121 µM	–
O=C(Cn1ccnc1[N+](=O)[O-])NCc1ccccc1 [Benznidazole]	–	–	1.99 µM	–	–	–	–	–
O=C(O)COCCN1CCN(C(c2ccccc2)c2ccc(Cl)cc2)CC1 (stereo not drawn) [Cetirizine (Hydrochloride), Cetirizine]	99.5 µM	149 µM	120 µM	186 µM	> 70.5 µM	20 µM	> 70.5 µM	–
Cc1cccc(C)c1OCC(=O)N[C@@H](Cc1ccccc1)[C@@H](O)C[C@H](Cc1ccccc1)NC(=O)[C@H](C(C)C)N1CCCNC1=O [Lopinavir]	10.8 µM	18.9 µM	15.4 µM	11.8 µM	> 47.7 µM	1.92 µM	> 47.7 µM	–
NC(=O)c1cccnc1 [Nicotinamide]	> 737 µM	> 737 µM	> 737 µM	> 737 µM	> 246 µM	> 40.9 µM	> 246 µM	–

SMILES	IC50 ([1]; read-out: IC50 T. b. rhod.)	IC50 (in vitro; IC50 Cytotox. L6)	IC50 ([2]; read-out: IC50 T. cruzi)	IC50 [3, 6]	IC50 [4, 7]	IC50 (P. falciparum strain K1; K1, read-out: IC50 P. falc. K1)	IC50 at 96 h [5, 8]	further results
CSc1ccc2c(c1)N(CCC1CCCCN1C)c1ccccc1S2 (stereo not drawn) [Thioridazine]	–	5.39 µM	–	–	–	–	–	MCC at 96 h [5, 11]: 25.8 µM
CC(=O)OCC(CCn1cnc2cnc(N)nc21)COC(C)=O [Famciclovir]	225 µM	180 µM	207 µM	> 311 µM	> 93.4 µM	> 156 µM	> 93.4 µM	–
CC(C)c1nc(CN(C)C(=O)N[C@H](C(=O)N[C@@H](Cc2ccccc2)C[C@H](O)[C@H](Cc2ccccc2)NC(=O)OCc2cncs2)C(C)C)cs1 [Ritonavir]	4.3 µM	–	20.7 µM	8.97 µM	> 41.6 µM	16.2 µM	–	–
Clc1ccc2c(c1)C(N1CCNCC1)=Nc1ccccc1O2 [Amoxapine]	–	16.2 µM	–	–	–	–	31.9 µM	–
Nc1nc(N)nc(Nc2ccc([As]3SCC(CO)S3)cc2)n1 (stereo not drawn) [Melarsoprol]	0.01 µM	–	–	–	–	–	–	–
Cc1ncc([N+](=O)[O-])n1CC(C)O (stereo not drawn) [Secnidazole]	28.7 µM	> 483 µM	> 161 µM	> 161 µM	> 161 µM	–	> 161 µM	–
CNCCC(Oc1ccc(C(F)(F)F)cc1)c1ccccc1 (stereo not drawn) [Fluoxetine]	–	15 µM	–	–	–	–	–	Activity against P. falciparum (in words) (P. falciparum strain K1): micromolar range; MCC at 96 h [5, 8]: 32.3 µM
CCC(C)n1ncn(-c2ccc(N3CCN(c4ccc(OCC5COC(Cn6cncn6)(c6ccc(Cl)cc6Cl)O5)cc4)CC3)cc2)c1=O (stereo not drawn) [Itraconazole]	8.53 µM	1.11 µM	0.004 µM	2.42 µM	> 1.42 µM	1.37 µM	–	–
CN(C)CCCN1c2ccccc2CCc2ccc(Cl)cc21 [Clomipramine]	–	19.8 µM	–	–	–	–	31.8 µM	–
Cc1ncc([N+](=O)[O-])n1CC(O)CCl (stereo not drawn) [Ornidazole]	25.9 µM	> 408 µM	130 µM	> 136 µM	> 136 µM	–	> 136 µM	–
CC(=O)N1CCN(c2ccc(OCC3COC(Cn4ccnc4)(c4ccc(Cl)cc4Cl)O3)cc2)CC1 (stereo not drawn) [Ketoconazole]	33.1 µM	–	0.27 µM	38.8 µM	> 18.8 µM	–	–	IC50 (in vitro): 51 µM
CC(C)CN(C[C@@H](O)[C@H](Cc1ccccc1)NC(=O)O[C@H]1CO[C@H]2OCC[C@H]21)S(=O)(=O)c1ccc(N)cc1 [Darunavir]	31.4 µM	–	92.2 µM	125 µM	> 54.8 µM	46.9 µM	–	–
CCCCCCCCCCCCCCCCOP(=O)([O-])OCC[N+](C)(C)C [Miltefosine]	–	–	–	–	1.21 µM	–	–	–
CCS(=O)(=O)CCn1c([N+](=O)[O-])cnc1C [Tinidazole]	16.6 µM	> 243 µM	> 81 µM	> 81 µM	> 81 µM	–	> 81 µM	Activity against T. b. rhodesiense (in words) ([1]; in vitro): inactive
CCN(CC)CCOc1ccc(C(=C(Cl)c2ccccc2)c2ccccc2)cc1 [Clomiphene]	–	–	–	–	–	–	–	IC50 (in vitro; Cytotox. L6 IC50): 13.1 µM; MCC at 96 h [5, 11]: 24.6 µM
OCCN1CCN(CCCN2c3ccccc3Sc3ccc(C(F)(F)F)cc32)CC1 [Fluphenazine]	–	11.5 µM	–	–	–	–	22.9 µM	Activity against P. falciparum (in words) (P. falciparum strain K1): micromolar range
